Results reported in patent EP0460488B1, “Sulfur-containing heterocyclic compounds” (Takeda Chemical Industries, Ltd., priority 1990, dated 1991).

system: bone resorption; experiment: Study on bone resorption inhibition: 45Ca release from cultured rat fetal bones (method of Raisz); type: cell-based, Sprague-Dawley rat; details: description for DK (own example numbering); rat fetal bone culture, 2 days with test compound; mean of 5 bones; test concentration not given
Experimental: Bone resorption inhibitory activity was determined according to the method of Raisz [Journal of Clinical Investigation (J. Clin. Invest.) 44, 103-116 (1965)].
(§1) That is, a Sprague-Dawley rat at day 19 of pregnancy was subcutaneously dosed with 50 µCi of 45Ca (a radioisotope of calcium, in CaCl2). On the next day, the animal was laparotomized and the fetuses were removed aseptically. The right and left […] (radii and ulnae) of each rat fetus were dissected from the body under the dissection microscope. The connective tissue and cartilages were removed as far as possible to prepare bone culture specimens. Each piece of bone was incubated in 0.6 ml of BGJb medium (Fitton-Jackson modification [the tradename owned by GIBCO Laboratories, U.S.A.]) containing 2 mg/ml of bovine serum albumin at 37°C for 24 hours. Then, incubation was carried out for additional two days in the above-mentioned medium. The radioactivities of 45Ca in the culture medium and bone were determined and the ratio (%) of 45Ca released from the bone to the medium was calculated according to the following formula. A =(B)/(B + C)x 100 [formula] A = ratio (%) of ^45Ca released from the bone to the medium B = ^45Ca count in the medium C = ^45Ca count in the bone
The bones from the fetuses of the same litter were similarly incubated without addition of the test compound for two days and served as controls.
The values for 5 bones per group were expressed in mean. The ratio (%) of this value for the treatment group to the control value was determined.
as §1, with “of ^45Ca” for “of 45Ca”

Molecule | 45Ca release (% to control)
Cc1ccc2c(c1)C(=O)CSC(C(=O)Nc1ccc(Cl)cc1)C2 (centres unmarked) [compound 28] | 61 % to control
COc1cc2c(cc1OC)C(=O)CSC(C(=O)Nc1nc(-c3ccccc3)cs1)C2 (centres unmarked) [compound 25] | 69 % to control
O=C1CSC(C(=O)Nc2ccc(Cl)cc2)Cc2ccc(Cl)cc21 (centres unmarked) [compound 26] | 68 % to control
methyl trans-4,7-dimethyl-5-oxo-1,2,4,5-tetrahydro-3-benzothiepine-2-carboxylate [Reference Example 32] | 63 % to control

same assay, conditions: rat fetal bone culture, 2 days with test compound; mean of 5 bones; ratio of treatment group to control; test concentration not given

Molecule | ^45Ca release (% to control)
COc1cc2c(cc1OC)C(=O)CSC(C(=O)Nc1nc(-c3ccccc3)cs1)C2 (centres unmarked) [Example 47] | 69 % to control
Cc1ccc2c(c1)C(=O)CSC(C(=O)Nc1ccc(Cl)cc1)C2 (centres unmarked) [Example 50] | 61 % to control
Cc1ccc2c(c1)C(=O)CSC(C(=O)N(C)Cc1ccccc1)C2 (centres unmarked) [Example 54] | 63 % to control
O=C1CSC(C(=O)Nc2ccc(Cl)cc2)Cc2ccc(Cl)cc21 (centres unmarked) [Example 48] | 68 % to control
